pIC50: −log10 of the molar value.
Experiments:
Caspase-3 (Homo sapiens) = molecular target: T1, Caspase-3 (Homo sapiens) (UniProt P42574); test: Inhibitory activity against caspase-3 (Csp-3)
T1 sequence (whole entry): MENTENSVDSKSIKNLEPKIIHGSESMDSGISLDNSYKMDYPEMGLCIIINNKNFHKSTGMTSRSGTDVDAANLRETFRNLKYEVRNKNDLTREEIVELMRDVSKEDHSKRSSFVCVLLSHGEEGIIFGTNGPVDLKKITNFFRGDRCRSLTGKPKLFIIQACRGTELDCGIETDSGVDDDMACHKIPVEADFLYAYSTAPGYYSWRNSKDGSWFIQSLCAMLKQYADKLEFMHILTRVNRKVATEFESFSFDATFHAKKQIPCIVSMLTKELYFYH

Caspase-6 (Homo sapiens) = molecular target: T2, Caspase-6 (Homo sapiens) (UniProt P55212); test: Inhibitory activity against caspase-6 (Csp-6)
T2 sequence (whole entry): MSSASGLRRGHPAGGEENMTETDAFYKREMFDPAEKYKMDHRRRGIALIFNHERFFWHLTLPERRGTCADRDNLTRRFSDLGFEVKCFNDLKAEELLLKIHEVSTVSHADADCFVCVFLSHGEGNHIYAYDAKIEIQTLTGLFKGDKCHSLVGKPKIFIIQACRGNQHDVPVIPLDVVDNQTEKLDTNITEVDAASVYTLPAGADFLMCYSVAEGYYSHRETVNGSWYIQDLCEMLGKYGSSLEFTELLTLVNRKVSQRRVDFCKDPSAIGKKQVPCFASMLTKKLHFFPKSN

Caspase-1 (Mus musculus) = molecular target: T3, Caspase-1 (Mus musculus) (UniProt P29452); test: Inhibitory activity against murine caspase-1
T3 sequence (whole entry): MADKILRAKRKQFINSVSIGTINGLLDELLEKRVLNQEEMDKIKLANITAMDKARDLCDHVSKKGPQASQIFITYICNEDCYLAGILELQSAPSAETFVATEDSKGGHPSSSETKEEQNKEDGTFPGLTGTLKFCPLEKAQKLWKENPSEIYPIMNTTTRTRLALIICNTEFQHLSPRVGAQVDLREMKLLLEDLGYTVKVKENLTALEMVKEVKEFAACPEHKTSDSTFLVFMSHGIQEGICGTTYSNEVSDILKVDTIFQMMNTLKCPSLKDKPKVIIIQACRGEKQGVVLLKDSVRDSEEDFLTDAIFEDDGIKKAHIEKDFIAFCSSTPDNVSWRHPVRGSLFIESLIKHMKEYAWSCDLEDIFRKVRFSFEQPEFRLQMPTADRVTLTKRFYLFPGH

Caspase-8 (Homo sapiens) = Caspase-8 (Homo sapiens) (UniProt Q14790); test: Inhibitory activity against caspase-8 (Csp-8)
Jurkat = test: Cellular assay in a Fas-induced model of apoptosis in Jurkat cells; format: functional, cell-based; conditions: Homo sapiens
Homo sapiens = species on record: Homo sapiens; test: Cellular assay in an inflammation model measuring IL1-beta secretion from isolated human monocytes induced with Staph A; format: functional
[1] = Cellular assay in a model of neuronal apoptosis involving cortical neurons exposed to concanavalin A; format: functional

Caspase-8 (Homo sapiens), sequence (Q14790 217-374 limits assumed): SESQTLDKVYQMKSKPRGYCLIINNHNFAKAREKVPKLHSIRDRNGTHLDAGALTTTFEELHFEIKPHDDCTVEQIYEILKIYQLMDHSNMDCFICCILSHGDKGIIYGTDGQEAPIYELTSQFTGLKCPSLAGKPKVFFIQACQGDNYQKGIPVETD
Caspase-8 (Homo sapiens), sequence (Q14790 385-479 limits assumed): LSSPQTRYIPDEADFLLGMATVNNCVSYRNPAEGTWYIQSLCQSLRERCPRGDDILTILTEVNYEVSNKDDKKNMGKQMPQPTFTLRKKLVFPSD

Row | k3/Ki (Caspase-3 (Homo sapiens)) [M⁻¹ s⁻¹] | k3/Ki (Caspase-6 (Homo sapiens)) [M⁻¹ s⁻¹] | k3/Ki (Caspase-1 (Mus musculus)) [M⁻¹ s⁻¹] | k3/Ki (Caspase-8 (Homo sapiens)) [M⁻¹ s⁻¹] | pIC50 (Jurkat) | pIC50 (Homo sapiens) | pIC50 [1] | Compound
1 | 5890 | 81 | 2240 | 130 | < 4.00 | 4.59 | – | CC(C)[C@H](NC(=O)COc1cccc2ccccc12)C(=O)N[C@@H](CC(=O)O)C(=O)COc1ccc2oc(=O)sc2c1
2 | 10500 | 776 | 2360 | 2420 | 4.54 | – | < 4.30 | CC(C)[C@H](NC(=O)COc1cccc2ccccc12)C(=O)N[C@@H](CC(=O)O)C(=O)COc1ccc(OC(F)(F)F)cc1
3 | 10200 | 46 | 3720 | 48 | < 4.00 | 4.57 | < 4.30 | CC(C)[C@H](NC(=O)COc1cccc2ccccc12)C(=O)N[C@@H](CC(=O)O)C(=O)COc1ccc(C#N)cc1
4 | 49000 | 1330 | 12100 | 483 | < 4.00 | 4.71 | 5.31 | CC(C)[C@H](NC(=O)COc1cccc2ccccc12)C(=O)N[C@@H](CC(=O)O)C(=O)COc1cc(F)ccc1F
5 | 200000 | 9980 | 53900 | 9080 | 5.69 | < 4.00 | 5.62 | CC(C)[C@H](NC(=O)COc1cccc2ccccc12)C(=O)N[C@@H](CC(=O)O)C(=O)COc1c(F)cccc1F
6 | 4900 | – | 612 | – | < 4.00 | – | < 4.30 | CC(=O)Nc1cccc(OCC(=O)[C@H](CC(=O)O)NC(=O)[C@@H](NC(=O)COc2cccc3ccccc23)C(C)C)c1
7 | 268000 | 78900 | 77500 | 30200 | 5.35 | 5.20 | 5.66 | CC(C)[C@H](NC(=O)COc1cccc2ccccc12)C(=O)N[C@@H](CC(=O)O)C(=O)COc1c(F)c(F)cc(F)c1F
8 | 33900 | 683 | 7220 | 1030 | 4.30 | 4.74 | 5.43 | CC(C)[C@H](NC(=O)COc1cccc2ccccc12)C(=O)N[C@@H](CC(=O)O)C(=O)COc1cccc(C(F)(F)F)c1F
9 | 8560 | – | 9120 | 699 | < 4.00 | 4.85 | < 4.30 | CC(C)[C@H](NC(=O)COc1cccc2ccccc12)C(=O)N[C@@H](CC(=O)O)C(=O)COc1ccc(F)cc1
10 | 351000 | 39700 | 143000 | 59300 | 4.73 | 5.46 | – | CC(C)[C@H](NC(=O)COc1cccc2ccccc12)C(=O)N[C@@H](CC(=O)O)C(=O)COP(=O)(c1ccccc1)c1ccccc1
11 | 36500 | 1770 | 12300 | 1850 | 4.52 | 4.80 | 5.21 | CC(C)[C@H](NC(=O)COc1cccc2ccccc12)C(=O)N[C@@H](CC(=O)O)C(=O)COc1ccc([N+](=O)[O-])cc1F
12 | 60100 | 1510 | 14700 | 1470 | 4.52 | 4.95 | 5.43 | CC(C)[C@H](NC(=O)COc1cccc2ccccc12)C(=O)N[C@@H](CC(=O)O)C(=O)COc1cc(F)cc(F)c1F
13 | 6930 | 625 | 1540 | 1120 | 5.03 | 4.60 | < 4.30 | CC(C)[C@H](NC(=O)COc1cccc2ccccc12)C(=O)N[C@@H](CC(=O)O)C(=O)COc1ccc(Oc2ccc(C(F)(F)F)cc2)cc1
14 | 26800 | – | 6020 | 233 | < 4.00 | 4.80 | 4.82 | CC(C)[C@H](NC(=O)COc1cccc2ccccc12)C(=O)N[C@@H](CC(=O)O)C(=O)COc1ccccc1F
15 | 21700 | – | 8400 | 628 | 4.48 | 4.75 | < 4.30 | CC(C)[C@H](NC(=O)COc1cccc2ccccc12)C(=O)N[C@@H](CC(=O)O)C(=O)COc1ccc(F)cc1F
16 | 13200 | 77 | 2580 | 196 | < 4.00 | 4.91 | < 4.30 | CC(C)[C@H](NC(=O)COc1cccc2ccccc12)C(=O)N[C@@H](CC(=O)O)C(=O)COc1ccc(C(F)(F)F)cc1
17 | 73000 | 10700 | 23500 | 1810 | < 4.00 | 4.56 | 5.23 | CC(C)[C@H](NC(=O)COc1cccc2ccccc12)C(=O)N[C@@H](CC(=O)O)C(=O)COc1ccccc1[N+](=O)[O-]
18 | 28800 | 1610 | 14800 | 197 | – | – | 5.28 | CC(C)[C@H](NC(=O)COc1cccc2ccccc12)C(=O)N[C@@H](CC(=O)O)C(=O)COc1cccc(F)c1F
19 | 8400 | 117 | 6130 | 137 | < 4.00 | 4.64 | 4.87 | CC(C)[C@H](NC(=O)COc1cccc2ccccc12)C(=O)N[C@@H](CC(=O)O)C(=O)COc1ccc([N+](=O)[O-])cc1
20 | 6460 | 86 | 1620 | 117 | < 4.00 | 4.79 | 4.77 | CC(C)[C@H](NC(=O)COc1cccc2ccccc12)C(=O)N[C@@H](CC(=O)O)C(=O)COc1ccc(F)c(F)c1
21 | 17800 | 48 | 2730 | 461 | < 4.00 | 4.92 | < 4.30 | CC(C)[C@H](NC(=O)COc1cccc2ccccc12)C(=O)N[C@@H](CC(=O)O)C(=O)COc1cccc(F)c1
22 | 7980 | – | 2450 | 150 | < 4.00 | 4.78 | < 4.30 | CC(C)[C@H](NC(=O)COc1cccc2ccccc12)C(=O)N[C@@H](CC(=O)O)C(=O)COc1cccc(C(F)(F)F)c1
23 | 20000 | 494 | 5630 | 75 | < 4.00 | 4.76 | < 4.30 | CC(C)[C@H](NC(=O)COc1cccc2ccccc12)C(=O)N[C@@H](CC(=O)O)C(=O)COc1ccccc1C(F)(F)F
24 | 24400 | 634 | 11400 | 668 | 4.41 | 4.78 | 5.38 | CC(C)[C@H](NC(=O)COc1cccc2ccccc12)C(=O)N[C@@H](CC(=O)O)C(=O)COc1cc(F)c(F)cc1F
25 | 30600 | – | 1410 | 359 | < 4.00 | 4.81 | < 4.30 | CC(C)[C@H](NC(=O)COc1cccc2ccccc12)C(=O)N[C@@H](CC(=O)O)C(=O)COc1cccc(OC(F)(F)F)c1
26 | 17700 | – | 1520 | 21 | < 4.00 | – | – | CC(C)[C@H](NC(=O)COc1cccc2ccccc12)C(=O)N[C@@H](CC(=O)O)C(=O)COc1ccc(C(=O)c2ccccc2)cc1
27 | 188000 | 81700 | 47100 | 17000 | 5.92 | – | 5.61 | CC(C)[C@H](NC(=O)COc1cccc2ccccc12)C(=O)N[C@@H](CC(=O)O)C(=O)COc1c(F)ccc(F)c1F
28 | 5350 | 193 | 783 | 68 | < 4.00 | – | < 4.30 | CC(C)[C@H](NC(=O)COc1cccc2ccccc12)C(=O)N[C@@H](CC(=O)O)C(=O)COc1cc(C(F)(F)F)cc(C(F)(F)F)c1
29 | 56600 | 13600 | 14700 | 8040 | 5.52 | 5.05 | – | CC(C)[C@H](NC(=O)COc1cccc2ccccc12)C(=O)N[C@@H](CC(=O)O)C(=O)COc1c(F)c(F)c(F)c(F)c1F
30 | 17700 | 744 | 3650 | – | < 4.00 | – | < 4.30 | CC(C)[C@H](NC(=O)COc1cccc2ccccc12)C(=O)N[C@@H](CC(=O)O)C(=O)COc1ccc(C(N)=O)cc1

Reference: ChEMBL document CHEMBL1136305, “Structure-activity relationships within a series of caspase inhibitors: effect of leaving group modifications” (Bioorg Med Chem Lett, 2003)
